Source: article PMC12399242 (Acta Pharmaceutica Sinica. B, 2025)
Structures can show the parent of a compound that is named as a salt. Where two headings read alike, the source gives them in different places.

Experiments:
[1] = in vitro; conditions: human, CC50
Text: (§1) Inspired by our previous research on heteroaromatic-biphenyl-DAPYs[15], the 4-cyanophenyl group on the biphenyl moiety was replaced with a privileged 4-pyridyl group for further evaluation.

[2] = tested on: MT-4 cells; assay: in vitro
Text: as §1

[3] = tested on: HIV-1 L100I; assay: Antiviral activity against HIV-1 mutant L100I in MT-4 cells; format: cell-based
[4] = tested on: HIV-1 K103N; assay: Antiviral activity against HIV-1 mutant K103N in MT-4 cells; format: cell-based
[5] = tested on: HIV-1 (IIIB); assay: microbe, parasite or virus in culture; format: cell-based; conditions: for EC50: mean ± SD, n ≥ 3; for SI (IIIB): selectivity index, ratio CC50/EC50
Text: as §1

[6] = tested on: HIV-1 K103N + Y181C (RES056); assay: Antiviral activity against HIV-1 double mutant K103N + Y181C (RES056) in MT-4 cells; format: cell-based
[7] = tested on: HIV-1 Y181C; assay: Antiviral activity against HIV-1 mutant Y181C in MT-4 cells; format: cell-based
[8] = target: WT HIV-1 RT (Human immunodeficiency virus type 1 group M subtype B, UniProt P03366); assay: Inhibition of WT HIV-1 RT polymerase activity
Procedure: The anti-HIV-1 activity of A1–A24 and B1–B22 at the cellular or enzyme level were evaluated following our previously reported method[15].

[9] = tested on: HIV-1 Y188L; assay: Antiviral activity against HIV-1 mutant Y188L in MT-4 cells; format: cell-based
[10] = tested on: HIV-1 E138K; assay: Antiviral activity against HIV-1 mutant E138K in MT-4 cells; format: cell-based
[11] = tested on: HIV-1 F227L + V106A; assay: microbe, parasite or virus in culture; format: cell-based
[12] = target: T1, CYP2D6 (Homo sapiens, UniProt P10635); assay: CYP enzyme inhibition assay, CYP2D6; format: in vitro ADME; conditions: IC50 CYP2D6, human liver microsomes
T1 construct: An incubation system of human liver microsomes (20 μL, 1.5 mg/mL); from tissue; host or cells: human liver microsomes
Procedure: An incubation system of human liver microsomes (20 μL, 1.5 mg/mL), 20 μL probe substrates, and 50 μL test compound in Tris (0.1 mol/L) was pre-incubated at 37 °C for 10 min, and then initiated by adding NADPH (10 μL, 10 mmol/L). The system was incubated for another 15 min and subsequently terminated by 100 μL MeCN containing internal standard (propranolol, nadolol). Finally, the sample was centrifugated to obtain the supernatant for LC‒MS/MS analysis.

[13] = target: CYP3A4-M (Homo sapiens, UniProt P08684); conditions: read-out: IC50 CYP3A4-M; cited from earlier work
[14] = comparison values; cited from earlier work
[15] = tested on: MT-4 cells; conditions: cited from earlier work
[16] = human liver microsomes; cited from earlier work
[17] = tested on: HIV-1 (IIIB); conditions: earlier compounds of Fig. 1 / introduction, cited from earlier work; for EC50: WT HIV-1
[18] = tested on: HIV-1 F227L + V106A; conditions: cited from earlier work
[19] = tested on: HIV-1 Y188L; conditions: cited from earlier work
[20] = tested on: HIV-1 K103N + Y181C (RES056); conditions: cited from earlier work
[21] = Human immunodeficiency virus 1, MT4, read-out: EC50 L100I
[22] = Human immunodeficiency virus 1, MT4, read-out: EC50 K103N
[23] = Human immunodeficiency virus 1, IIIB, MT4, WT HIV-1, protection of MT-4 cells against HIV-induced cytopathogenicity
[24] = WT HIV-1, protection of MT-4 cells against HIV-induced cytopathogenicity
[25] = Human immunodeficiency virus 1, MT4, read-out: EC50 K103N + Y181C
[26] = Human immunodeficiency virus 1, MT4, read-out: EC50 Y181C
[27] = Human immunodeficiency virus 1, MT4, read-out: EC50 Y188L
[28] = Human immunodeficiency virus 1, MT4, read-out: EC50 E138K
[29] = Human immunodeficiency virus 1, MT4, read-out: EC50 F227L + V106A
[30] = uninfected MT-4 cells, mean ± SD, n ≥ 3
[31] = MT-4 cells, mean ± SD, n ≥ 3, read-out: EC50 L100I
[32] = MT-4 cells, mean ± SD, n ≥ 3, read-out: EC50 K103N
[33] = RES056, MT-4 cells, mean ± SD, n ≥ 3, read-out: EC50 K103N + Y181C
[34] = MT-4 cells, mean ± SD, n ≥ 3, read-out: EC50 Y181C
[35] = MT-4 cells, mean ± SD, n ≥ 3, read-out: EC50 Y188L
[36] = MT-4 cells, mean ± SD, n ≥ 3, read-out: EC50 E138K
[37] = MT-4 cells, mean ± SD, n ≥ 3, read-out: EC50 F227L + V106A
[38] = earlier compounds of Fig. 1 / introduction

T1 sequence (P10635 whole entry): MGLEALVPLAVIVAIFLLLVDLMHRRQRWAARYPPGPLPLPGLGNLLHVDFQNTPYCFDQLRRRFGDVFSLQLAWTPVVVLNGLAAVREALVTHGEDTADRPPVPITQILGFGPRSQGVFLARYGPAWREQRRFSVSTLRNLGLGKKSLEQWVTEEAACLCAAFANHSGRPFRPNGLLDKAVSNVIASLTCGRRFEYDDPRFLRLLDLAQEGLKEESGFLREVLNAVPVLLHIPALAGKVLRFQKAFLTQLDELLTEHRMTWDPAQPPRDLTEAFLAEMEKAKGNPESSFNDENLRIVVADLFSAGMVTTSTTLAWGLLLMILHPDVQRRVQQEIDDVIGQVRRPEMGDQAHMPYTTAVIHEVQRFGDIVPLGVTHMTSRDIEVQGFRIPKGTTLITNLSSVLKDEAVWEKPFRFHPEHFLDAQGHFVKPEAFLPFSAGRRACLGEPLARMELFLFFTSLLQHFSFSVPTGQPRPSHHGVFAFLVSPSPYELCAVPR
Sequence of CYP3A4-M (P08684 whole entry): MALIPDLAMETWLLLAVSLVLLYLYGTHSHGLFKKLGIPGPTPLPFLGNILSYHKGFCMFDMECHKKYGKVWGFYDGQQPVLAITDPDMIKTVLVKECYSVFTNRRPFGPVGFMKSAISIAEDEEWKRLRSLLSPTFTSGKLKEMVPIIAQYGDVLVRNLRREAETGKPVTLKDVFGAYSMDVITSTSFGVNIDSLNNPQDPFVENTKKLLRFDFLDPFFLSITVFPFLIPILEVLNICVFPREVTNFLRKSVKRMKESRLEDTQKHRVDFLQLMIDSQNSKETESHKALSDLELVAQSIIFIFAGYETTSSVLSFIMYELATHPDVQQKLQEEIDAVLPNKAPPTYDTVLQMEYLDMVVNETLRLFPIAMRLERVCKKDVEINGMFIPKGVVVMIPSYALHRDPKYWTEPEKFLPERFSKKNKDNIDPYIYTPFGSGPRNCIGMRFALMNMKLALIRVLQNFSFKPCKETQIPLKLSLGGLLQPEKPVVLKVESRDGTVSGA

Compound | CC50 [1] [nM] | EC50 [3, 21] [nM] | EC50 [4, 22] [nM] | EC50 [5, 23] [nM] | EC50 [5, 24] [nM] | SI (IIIB) [5] | EC50 [6, 25] [nM] | EC50 [7, 26] [nM] | IC50 [8] [nM] | EC50 [9, 27] [nM] | EC50 [10, 28] [nM] | EC50 [11, 29] [nM] | EC50 [17] [nM] | also measured
N#Cc1ccc(Nc2ncc(F)c(Oc3ccc(-c4ccc(C#N)cc4)cc3F)n2)cc1 [A1, 4′-((2-((4-Cyanophenyl)amino)-5-fluoropyrimidin-4-yl)oxy)-3′-fluoro-[1,1′-biphenyl]-4-carbonitrile] | > 45000 | 174 ± 49 | 52 ± 42 | ≤ 5.3 | 4.2 ± 1.4 | >10,870 | > 47000 | 306 ± 117 | 54 ± 9.4 | > 47000 | 28 ± 12 | > 47000 | – | CC50 ([2]; human): > 47000 nM
COc1cc(-c2ccc(C#N)cc2)ccc1Oc1nc(Nc2ccc(C#N)cc2)ncc1F [A4, 4′-((2-((4-Cyanophenyl)amino)-5-fluoropyrimidin-4-yl)oxy)-3′-methoxy-[1,1′-biphenyl]-4-carbonitrile] | > 45000 | 41 ± 25 | 9.4 ± 2.7 | ≤ 5.3 | 3 ± 1.1 | >16,000 | > 45700 | 48 ± 14 | 46 ± 4.6 | 1370 ± 206 | 7.8 ± 2.3 | ≥ 1600 | – | CC50 ([2]; human): > 46000 nM
N#Cc1ccc(Nc2ncc(F)c(Nc3ccc(-c4ccc(C#N)cc4)cc3F)n2)cc1 [A7, 4′-((2-((4-Cyanophenyl)amino)-5-fluoropyrimidin-4-yl)amino)-3′-fluoro-[1,1′-biphenyl]-4-carbonitrile] | > 45000 | 5440 ± 2400 | 68 ± 38 | – | – | >25,806 | > 47100 | 259 ± 165 | 28 ± 4.7 | > 47100 | 35 ± 17 | > 47100 | – | CC50 ([2]; human): > 47000 nM
N#Cc1ccc(Nc2ncc(F)c(Nc3c(F)cc(-c4ccc(C#N)cc4)cc3F)n2)cc1 [A11, 4′-((2-((4-Cyanophenyl)amino)-5-fluoropyrimidin-4-yl)amino)-3′,5′-difluoro-[1,1′-biphenyl]-4-carbonitrile] | > 45000 | 10 ± 2.9 | 5 ± 1.1 | – | – | >40,000 | > 45200 | 8.1 ± 2 | 27 ± 2.3 | > 45200 | 2.5 ± 0.7 | > 45200 | – | –
COc1cc(-c2ccncc2)ccc1Oc1nc(Nc2ccc(C#N)cc2)ncc1F [A16, 4-((5-Fluoro-4-(2-methoxy-4-(pyridin-4-yl)phenoxy)pyrimidin-2-yl)amino)benzonitrile] | > 45000 | 39 ± 9.7 | 12 ± 3.9 | ≤ 5.3 | 3.1 ± 2.2 | >15,094 | > 48400 | 104 ± 17 | 34 ± 2.4 | 1520 ± 556 | 13 ± 3.4 | 1230 ± 556 | – | CC50 ([2]; human): > 48000 nM
COc1ccc2c(c1)[C@]13CCCC[C@@H]1[C@H](C2)N(C)CC3 [Dextromethorphan, reference compound] | – | – | – | – | – | – | – | – | – | – | – | – | – | IC50 [12]: 224 nM
O=C1Nc2ccc(Cl)cc2[C@@](C#CC2CC2)(C(F)(F)F)O1 [EFV, reference compound] | – | – | – | – | 3.8 ± 1 | >1618 | – | – | – | – | – | – | – | CC50 [2, 30]: > 6300 nM; EC50 [3, 31]: 24 ± 9.5 nM; EC50 [4, 32]: 60 ± 19 nM; EC50 [6, 33]: 314 ± 146 nM; EC50 [7, 34]: 6.3 ± 2.5 nM; EC50 [9, 35]: 244 ± 95 nM; EC50 [10, 36]: 5.4 ± 1.6 nM; EC50 [11, 37]: 181 ± 89 nM
Cc1cc(C#N)cc(C)c1Oc1nc(Nc2ccc(C#N)cc2)nc(N)c1Br [ETR, etravirine, reference compound] | > 4600 | 4.4 ± 1.6 | 2.8 ± 0.7 | 3.2 ± 0.7 | – | – | 44 ± 23 | 13 ± 2.8 | – | – | 7.6 ± 2.3 | 12 ± 9.4 | – | IC50 [13]: 41300 nM; F (oral bioavailability) [14]: undetectable; CC50 ([15]; introduction): ~5000 nM; CLint(liver) [16]: 19.0 mL/min/kg; CLint(mic) [16]: 21.1 µL/min/mg; t1/2 [16]: 65.5 min
Cc1ccnc2c1NC(=O)c1cccnc1N2C1CC1 [NVP, reference compound] | – | – | – | – | 188 ± 68 | – | – | – | – | – | – | – | – | CC50 [2, 30]: > 15000 nM; EC50 [3, 31]: 1800 ± 1430 nM; EC50 [4, 32]: 5860 ± 2780 nM; EC50 [6, 33]: > 15000 nM; EC50 [7, 34]: 9010 ± 2630 nM; EC50 [9, 35]: > 15000 nM; EC50 [10, 36]: 143 ± 38 nM; EC50 [11, 37]: > 15000 nM
Cc1cc(/C=C/C#N)cc(C)c1Nc1ccnc(Nc2ccc(C#N)cc2)n1 [RPV · HCl, rilpivirine HCl] | – | – | – | – | – | – | – | – | – | – | – | – | – | F (oral bioavailability) [14]: 32%
Cc1cc(/C=C/C#N)cc(C)c1Nc1ccnc(Nc2ccc(C#N)cc2)n1 [RPV, rilpivirine] | – | – | – | – | – | – | – | – | – | – | – | – | 1 | CC50 ([15]; introduction): ~5000 nM; CLint(liver) [16]: 97.6 mL/min/kg; CLint(mic) [16]: 108.4 µL/min/mg; t1/2 [16]: 12.8 min
Cc1cc(-c2ccc(C#N)cc2)cc(C)c1Nc1ccnc(Nc2ccc(C#N)cc2)n1 [compound 3] | – | – | – | – | – | – | – | – | – | – | – | – | 1 | SI [17]: 2,059
N#Cc1ccc(Nc2nccc(Nc3c(F)cc(-c4ccc(C#N)cc4)cc3F)n2)cc1 [compound 4] | – | – | – | – | – | – | – | – | – | – | – | – | 1.3 | SI [17]: > 238,095; CC50 [15, 38]: > 294000 nM
CN(c1ccnc(Nc2ccc(C#N)cc2)n1)c1c(F)cc(-c2ccc(C#N)cc2)cc1F [compound 5] | – | – | – | – | – | – | – | – | – | – | – | – | 6.2 | SI [17]: 24,067; CC50 [15, 38]: 148000 nM
Cc1cnc(Nc2ccc(C#N)cc2)nc1Nc1c(F)cc(-c2ccc(C#N)cc2)cc1F [compound 6, reference compound] | > 285000 | 16 ± 5.3 | 5.4 ± 1.8 | 1.4 ± 0.3 | – | >208,333 | > 2000 | 11 ± 1.9 | – | > 2000 | 8.3 ± 1.5 | > 2000 | 1.4 | EC50 [18]: > 2000 nM; SI [17]: > 208,333; EC50 [19]: > 2000 nM; CC50 [15, 38]: > 285000 nM; EC50 [20]: > 2000 nM
